Values after ≈ are worked out from the molar mass of the structure shown. Counter-ions that a name gives are not always drawn. Values belong to the compound of their own block, whether it stands above or below them.
Experiments:
[1] = Solubility in 14 mM phosphate buffered saline pH 7.4 at 23° C.; assay type: physicochemical; settings: aqueous buffer, 14 mM PBS pH 7.4, OD at 250 nm of supernatant, read-out: maximum solubility
Description: The solubility of the two acetaminophen derivatives (Examples 9 and 10) in 14 mM phosphate buffered saline (PBS) pH 7.4 was determined and compared with the solubility of non-derivatized acetaminophen. It was determined that the two acetaminophen derivatives had much greater solubility than that of the non-derivatized acetaminophen. All work was performed at 23° C.
Method: The solubility of both derivatives was determined by continual addition, with agitation, of the derivatives to a known amount of buffer. When a significant precipitate was observed, the respective solutions were centrifuged and the optical density at 250 nm of the resulting clear supernatant was determined. From the optical density of the supernatant, the concentration was obtained by comparison with non-derivatized acetaminophen standard curves.

[2] = in vivo; cited from earlier work
cancer cells = settings: cited from earlier work
K-562 = assay: Tumor cell growth inhibition in K-562 cell culture (FIG. 8); assay type: cell-based; settings: K-562 culture fluid; 1/10 (0.4 mg/mL), 1/80 (0.03 mg/mL), 1/320 (0.007 mg/mL); plot FIG. 8
[3] = system: cancer diseases of several phenotypes; settings: cited from earlier work
[4] = system: cancer cells of representative phenotypes; settings: cited from earlier work

SMILES: CC(C)CCC[C@@H](C)[C@H]1CC[C@H]2[C@@H]3[C@@H](OC(=O)CCC(=O)O)C=C4C[C@@H](OC(=O)CCC(=O)O)CC[C@]4(C)[C@H]3CC[C@]12C [7β-OHC bishemisuccinate colamine salt]
normalizing effects [2]: drive-enhancing (stimulating) activity as well as a tranquilizing activity
inhibition of proliferative phase growth of cancer cells (cancer cells; clinical studies, low parenteral dosage): selectively inhibit the proliferative phase growth of cancer cells
side effects (cancer cells; in vivo): without substantial side effects

SMILES: CC(C)CCC[C@@H](C)[C@H]1CC[C@H]2[C@@H]3[C@@H](O)C=C4C[C@@H](O)CC[C@]4(C)[C@H]3CC[C@]12C [7β-hydroxycholesterol, 5-cholestene-3β,7β-diol]
tumor cell growth inhibition (K-562): tumor cell growth inhibition
side effects in treatment of cancer diseases ([3]; in vivo): free of side effects
treatment of cancer diseases ([3]; several phenotypes): successfully employed
effect on healthy cells [4]: not affecting healthy cells
elimination of cancer cells ([4]; substantially non-toxic dosage): effective at substantially non-toxic dosage and capable of eliminating cancer cells of representative phenotypes

Second part, the compound after the results:

solubility [1]: 7 mg/mL (≈ 46.3 mM)
SMILES: CC(=O)Nc1ccc(O)cc1 [acetaminophen, 4-acetamidophenol]

solubility [1]: 55 mg/mL (≈ 125 mM)
SMILES: CC(=O)Nc1ccc(O[C@@H]2C=C[C@H](O[C@@H]3O[C@H](CO)[C@H](O)[C@H](O)[C@H]3O)[C@@H](CO)O2)cc1 [Example 10, p-Acetoamidophenyl 4-O-(β-D-galactopyranosyl)-2,3-dideoxy-O-D-erythro-hex-2-enopyranoside]

solubility [1]: 60 mg/mL (≈ 136 mM)
SMILES: CC(=O)Nc1ccc(O[C@@H]2C=C[C@H](O[C@H]3O[C@H](CO)[C@@H](O)[C@H](O)[C@H]3O)[C@@H](CO)O2)cc1 [Example 9, p-Acetoamidophenyl 4-O-(α-D-glucopyranosyl)-2,3-dideoxy-α-D-erythro-hex-2-enopyranoside]

From patent US6093805A, “Glycoside compounds and methods of synthesis” (The Regents of the University of Michigan, priority 1997, dated 2000)
